According to publication PMC7022466, “Developing Clinically Relevant Dissolution Specifications for Oral Drug Products—Industrial and Regulatory Perspectives” (Pharmaceutics, 2019):
Where two headings read alike, the source gives them in different places.

Experiments:
[1] = Solubility in biorelevant media; format: physicochemical
Description: (§1) In a first step, the physico-chemical characteristics of both API forms were compared in biorelevant media. Table 1 provides an overview of the solubility data and intrinsic dissolution properties. For both API forms, the compound is practically insoluble in water, irrespective of pH, but it undergoes substantial solubilization in the presence of bile. […] However, as the solubility of the newly isolated form is about 40% lower when compared to canagliflozin hemihydrate, the bioavailability in the fasted state conditions remains uncertain.

[2] = Intrinsic dissolution rate in biorelevant media; format: physicochemical
Description: as §1

BCS classification = format: physicochemical
Description: The Biopharmaceutics Classification System (BCS) provides a well-established framework for assessing the biopharmaceutics risk of immediate release drug products, based on properties of the Active Pharmaceutical Ingredient (API) and drug product. The compounds are classified into one of four groups, according to their solubility and permeability properties. Compounds in BCS Class 1 (high solubility, high permeability) and BCS Class 3 (high solubility, low permeability) are eligible for biowaivers, i.e., the requirement for an in vivo bioequivalence study is waived if certain requirements are met. For the development of CRDS for these compounds, the BCS effectively acts as an accepted body of ‘prior knowledge’, as the ability of dissolution in simple aqueous buffers across the physiological pH range to ensure in vivo bioequivalence is already well established. This can form the basis of CRDS for BCS Class 1 and 3 compounds, unless additional data are generated to justify the further widening of these limits for a specific drug product.
During the experiments for continuous process improvements of JNJ-1, a new crystal form has been isolated from the drug substance crude crystallization step. The new form appeared to be the thermodynamically favoured form in the process conditions. […]

[3] = Food effect (high-fat meal) on absorption; format: in vivo; details: clinically relevant dose strengths
Description: as §1
The integration of the biopharmaceutical parameters relevant for drug absorption in a more physiological context further expanded the risk assessment. For this, a PBBM model was developed and validated for JNJ-1 while using GastroPlus™ (version 8.5). Based on the available physicochemical properties, in vitro biopharmaceutical experimentation, biorelevant dissolution data, and clinical PK parameters, the model was able to simulate the in vivo observed clinical PK data.

[4] = virtual simulation, 120 mg tablets; cited from earlier work
[5] = cited from earlier work
[6] = design: method as in PMID 25182387; details: pH 4.5 and 6.8; cited from earlier work
[7] = design: method as in PMID 25182387; details: cited from earlier work

| SMILES | Solubility FaSSIF ([1]; FaSSIF) | Solubility FeSSIF ([1]; FeSSIF) | Solubility SGF ([1]; SGF) | Intrinsic Dissolution Rate FaSSIF ([2]; FaSSIF) | Intrinsic Dissolution Rate FeSSIF ([2]; FeSSIF) | Intrinsic Dissolution Rate SGF ([2]; SGF) | BCS class (BCS classification) | Effect of a high-fat meal on absorption [3] | Predicted AUC0-120 hr and Cmax bioequivalence of two sites formulations [4] | Bioequivalence of formulations from the two sites, clinical study [5] | F2 similarity test of dissolution profiles between two sites [6] | BCS class [7] |
| --- | --- | --- | --- | --- | --- | --- | --- | --- | --- | --- | --- | --- |
| Cc1ccc([C@@H]2O[C@H](CO)[C@@H](O)[C@H](O)[C@H]2O)cc1Cc1ccc(-c2ccc(F)cc2)s1.O [Registered crystal form, canagliflozin hemihydrate] | 540 µg/mL | 5000 µg/mL | 37 µg/mL | 13.8 µg/min/cm^2 | 157.9 µg/min/cm^2 | 3.9 µg/min/cm^2 | BCS class 4 | absence of any effect |  |  |  |  |
| Cc1ccc(-c2ncc(Cl)cc2-c2ccc(S(C)(=O)=O)cc2)cn1 [etoricoxib] |  |  |  |  |  |  |  |  | bioequivalent | bioequivalent | failed | BCS II |
